{
  "source": "the supplement of paper PMC11208160",
  "data": [
    {"experiment": "recombinant UMI read abundance after kanamycin selection (control-corrected) (log10(CPM+1)); higher = more efficient recombination; extreme values may be limits of the assay; sequences stand for … in AGTGCAGAGAAAATCGGCCAGTTTTCTCTGCCTGCAGTCCGCATGCCGTGGGACCCCTTGGGTTCTAACCTGTTGCCTAGATTTATGCAGCGGACTGCCTTTCTCCCAAAGTGATAAACCGG…AGGTTGGTTTCACT; site = the 11-nt donor", "method_in_brief": "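Each donor and donor-binding-loop pair was tracked by a 12-nt UMI on a plasmid carrying a promoterless kanamycin gene. With a second plasmid supplying a fixed target and T7-inducible IS621 bridge recombinase, the pool was plated in Escherichia coli on IPTG (0.07 mM) plus kanamycin or unselected. Sequencing of recombinant UMIs across the donor–target junction gave counts expressed as log10(CPM+1) after replicate averaging and control-derived scaling.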", "values": [
      {"sequence": "GACAAACCATGGACCGGTTTTCCCGGTAATCCGTATTTGGT (site GTCAAACCTAC)", "recombinant UMI read abundance (log10)": 0},
      {"sequence": "GACAAACCATGGACCGGTTTTCCCGGTAATCCGTATTTGGT (site TACAAACCTAC)", "recombinant UMI read abundance (log10)": 0},
      {"sequence": "GACAACCCATGGACCGGTTTTCCCGGTAATCCGTATTTGCT (site GACAACCCTAG)", "recombinant UMI read abundance (log10)": 0.00684},
      {"sequence": "GACAACCCATGGACCGGTTTTCCCGGTAATCCGTATTTGGT (site GACAAACCTAC)", "recombinant UMI read abundance (log10)": 0},
      {"sequence": "GACAACCCATGGACCGGTTTTCCCGGTAATCCGTATTTGGT (site GACAACCCTAC)", "recombinant UMI read abundance (log10)": 0},
      {"sequence": "GACAACCCATGGACCGGTTTTCCCGGTAATCCGTATTTGGT (site GACAAGCCTAC)", "recombinant UMI read abundance (log10)": 0.00882},
      {"sequence": "GACAACCCATGGACCGGTTTTCCCGGTAATCCGTATTTGGT (site GACAATCCTAC)", "recombinant UMI read abundance (log10)": 0},
      {"sequence": "GACAAGCCATGGACCGGTTTTCCCGGTAATCCGTATTTGGT (site GACAAACCTAC)", "recombinant UMI read abundance (log10)": 0},
      {"sequence": "GACAAGCCATGGACCGGTTTTCCCGGTAATCCGTATTTGGT (site GACAACCCTAC)", "recombinant UMI read abundance (log10)": 0.00727},
      {"sequence": "GACAAGCCATGGACCGGTTTTCCCGGTAATCCGTATTTGGT (site GACAAGCCTAC)", "recombinant UMI read abundance (log10)": 0},
      {"sequence": "GACAAGCCATGGACCGGTTTTCCCGGTAATCCGTATTTGGT (site GACAATCCTAC)", "recombinant UMI read abundance (log10)": 0},
      {"sequence": "GACAATTCATGGACCGGTTTTCCCGGTAATCCGTATTTGAC (site GACAATTCTGT)", "recombinant UMI read abundance (log10)": 0},
      {"sequence": "GACACATCATGGACCGGTTTTCCCGGTAATCCGTATTTGGT (site GACACATCTAC)", "recombinant UMI read abundance (log10)": 2.25},
      {"sequence": "GACATACCATGGACCGGTTTTCCCGGTAATCCGTATTTGGT (site GACAAACCTAC)", "recombinant UMI read abundance (log10)": 0},
      {"sequence": "GACATACCATGGACCGGTTTTCCCGGTAATCCGTATTTGGT (site GACACACCTAC)", "recombinant UMI read abundance (log10)": 0.01},
      {"sequence": "GACATACCATGGACCGGTTTTCCCGGTAATCCGTATTTGGT (site GACAGACCTAC)", "recombinant UMI read abundance (log10)": 0},
      {"sequence": "GACATACCATGGACCGGTTTTCCCGGTAATCCGTATTTGGT (site GACATACCTAC)", "recombinant UMI read abundance (log10)": 0.0102},
      {"sequence": "GACCCGCCATGGACCGGTTTTCCCGGTAATCCGTATTTGAG (site GACCCGCCTCT)", "recombinant UMI read abundance (log10)": 0.0157},
      {"sequence": "GACCCGCCATGGACCGGTTTTCCCGGTAATCCGTATTTGTG (site GACCCGCCTCA)", "recombinant UMI read abundance (log10)": 0.0171},
      {"sequence": "GACCCGTCATGGACCGGTTTTCCCGGTAATCCGTATTTGTG (site GACCCGTCTCA)", "recombinant UMI read abundance (log10)": 1.63},
      {"sequence": "GACCGAGCATGGACCGGTTTTCCCGGTAATCCGTATTTGTA (site GACCGAGCTTA)", "recombinant UMI read abundance (log10)": 1.19},
      {"sequence": "GACCTAGCATGGACCGGTTTTCCCGGTAATCCGTATTTGAA (site GACCTAGCTTT)", "recombinant UMI read abundance (log10)": 0.349},
      {"sequence": "GACCTCACATGGACCGGTTTTCCCGGTAATCCGTATTTGAT (site GAACTCACTAT)", "recombinant UMI read abundance (log10)": 0.0127},
      {"sequence": "GACCTCACATGGACCGGTTTTCCCGGTAATCCGTATTTGAT (site GACCTCACTAT)", "recombinant UMI read abundance (log10)": 0.626},
      {"sequence": "GACCTCACATGGACCGGTTTTCCCGGTAATCCGTATTTGAT (site GAGCTCACTAT)", "recombinant UMI read abundance (log10)": 0},
      {"sequence": "GACCTCACATGGACCGGTTTTCCCGGTAATCCGTATTTGAT (site GATCTCACTAT)", "recombinant UMI read abundance (log10)": 0.00913},
      {"sequence": "GACCTCCCATGGACCGGTTTTCCCGGTAATCCGTATTTGTG (site GACCTCCCTCA)", "recombinant UMI read abundance (log10)": 0.00533},
      {"sequence": "GACGACGCATGGACCGGTTTTCCCGGTAATCCGTATTTGGA (site GACGACGCTTC)", "recombinant UMI read abundance (log10)": 2.48},
      {"sequence": "GACGTAACATGGACCGGTTTTCCCGGTAATCCGTATTTGTA (site GACGTAACTTA)", "recombinant UMI read abundance (log10)": 2.19},
      {"sequence": "GACTAGTCATGGACCGGTTTTCCCGGTAATCCGTATTTGTG (site GACTAGTCTCA)", "recombinant UMI read abundance (log10)": 1.64},
      {"sequence": "GACTCTTCATGGACCGGTTTTCCCGGTAATCCGTATTTGGC (site GACTCTTCTGC)", "recombinant UMI read abundance (log10)": 1.04},
      {"sequence": "GACTGGACATGGACCGGTTTTCCCGGTAATCCGTATTTGGT (site GACTGGACTAC)", "recombinant UMI read abundance (log10)": 0.826},
      {"sequence": "GACTTTGCATGGACCGGTTTTCCCGGTAATCCGTATTTGCA (site GACTTTGCTTG)", "recombinant UMI read abundance (log10)": 0},
      {"sequence": "GAGATCACATGGACCGGTTTTCCCGGTAATCCGTATTTGAT (site GAGATCACTAT)", "recombinant UMI read abundance (log10)": 2.13},
      {"sequence": "GAGATCACATGGACCGGTTTTCCCGGTAATCCGTATTTGAT (site GAGCTCACTAT)", "recombinant UMI read abundance (log10)": 0.00919},
      {"sequence": "GAGATCACATGGACCGGTTTTCCCGGTAATCCGTATTTGAT (site GAGGTCACTAT)", "recombinant UMI read abundance (log10)": 0.0122},
      {"sequence": "GAGATCACATGGACCGGTTTTCCCGGTAATCCGTATTTGAT (site GAGTTCACTAT)", "recombinant UMI read abundance (log10)": 0.113},
      {"sequence": "GAGCAAGCATGGACCGGTTTTCCCGGTAATCCGTATTTGCA (site GAGCAAGCTTG)", "recombinant UMI read abundance (log10)": 2.68},
      {"sequence": "GAGCAGACATGGACCGGTTTTCCCGGTAATCCGTATTTGTG (site GAGCAGACTCA)", "recombinant UMI read abundance (log10)": 1.25},
      {"sequence": "GAGCCCACATGGACCGGTTTTCCCGGTAATCCGTATTTGAT (site GAGCACACTAT)", "recombinant UMI read abundance (log10)": 0},
      {"sequence": "GAGCCCACATGGACCGGTTTTCCCGGTAATCCGTATTTGAT (site GAGCCCACTAT)", "recombinant UMI read abundance (log10)": 1.66},
      {"sequence": "GAGCCCACATGGACCGGTTTTCCCGGTAATCCGTATTTGAT (site GAGCGCACTAT)", "recombinant UMI read abundance (log10)": 0.0147},
      {"sequence": "GAGCCCACATGGACCGGTTTTCCCGGTAATCCGTATTTGAT (site GAGCTCACTAT)", "recombinant UMI read abundance (log10)": 0.00621},
      {"sequence": "GAGCGCGCATGGACCGGTTTTCCCGGTAATCCGTATTTGCG (site GAGCGCGCTCG)", "recombinant UMI read abundance (log10)": 1.56},
      {"sequence": "GAGCTCACATGGACCGGTTTTCCCGGTAATCCGTATTTGGT (site GAGCTCACTAA)", "recombinant UMI read abundance (log10)": 0.274},
      {"sequence": "GAGCTCACATGGACCGGTTTTCCCGGTAATCCGTATTTGGT (site GAGCTCACTAC)", "recombinant UMI read abundance (log10)": 0.841},
      {"sequence": "GAGCTCACATGGACCGGTTTTCCCGGTAATCCGTATTTGGT (site GAGCTCACTAG)", "recombinant UMI read abundance (log10)": 1.37},
      {"sequence": "GAGCTCACATGGACCGGTTTTCCCGGTAATCCGTATTTGGT (site GAGCTCACTAT)", "recombinant UMI read abundance (log10)": 0.971},
      {"sequence": "GAGCTCGCATGGACCGGTTTTCCCGGTAATCCGTATTTGAT (site GAGCTCACTAT)", "recombinant UMI read abundance (log10)": 1.7},
      {"sequence": "GAGCTCGCATGGACCGGTTTTCCCGGTAATCCGTATTTGAT (site GAGCTCCCTAT)", "recombinant UMI read abundance (log10)": 0.626},
      {"sequence": "GAGCTCGCATGGACCGGTTTTCCCGGTAATCCGTATTTGAT (site GAGCTCGCTAT)", "recombinant UMI read abundance (log10)": 2.26},
      {"sequence": "GAGCTCGCATGGACCGGTTTTCCCGGTAATCCGTATTTGAT (site GAGCTCTCTAT)", "recombinant UMI read abundance (log10)": 1.37},
      {"sequence": "GAGGAAACATGGACCGGTTTTCCCGGTAATCCGTATTTGCT (site GAGGAAACTAG)", "recombinant UMI read abundance (log10)": 0},
      {"sequence": "GAGGAACCATGGACCGGTTTTCCCGGTAATCCGTATTTGGA (site GAGGAACCTTC)", "recombinant UMI read abundance (log10)": 0.00548},
      {"sequence": "GAGGATGCATGGACCGGTTTTCCCGGTAATCCGTATTTGAA (site GAGGATGCTTT)", "recombinant UMI read abundance (log10)": 2.56},
      {"sequence": "GAGGTAGCATGGACCGGTTTTCCCGGTAATCCGTATTTGAT (site GAGGTAGCTAT)", "recombinant UMI read abundance (log10)": 2.43},
      {"sequence": "GAGTAGCCATGGACCGGTTTTCCCGGTAATCCGTATTTGTC (site GAGTAGCCTGA)", "recombinant UMI read abundance (log10)": 0},
      {"sequence": "GAGTGGACATGGACCGGTTTTCCCGGTAATCCGTATTTGAC (site GAATGGACTGT)", "recombinant UMI read abundance (log10)": 1.75},
      {"sequence": "GAGTGGACATGGACCGGTTTTCCCGGTAATCCGTATTTGAC (site GACTGGACTGT)", "recombinant UMI read abundance (log10)": 0.208},
      {"sequence": "GAGTGGACATGGACCGGTTTTCCCGGTAATCCGTATTTGAC (site GAGTGGACTGT)", "recombinant UMI read abundance (log10)": 2.6},
      {"sequence": "GAGTGGACATGGACCGGTTTTCCCGGTAATCCGTATTTGAC (site GATTGGACTGT)", "recombinant UMI read abundance (log10)": 0},
      {"sequence": "GATAAGCCATGGACCGGTTTTCCCGGTAATCCGTATTTGCC (site GATAAGCCTGG)", "recombinant UMI read abundance (log10)": 0},
      {"sequence": "GATACGTCATGGACCGGTTTTCCCGGTAATCCGTATTTGTT (site GATACGTCTAA)", "recombinant UMI read abundance (log10)": 0.338},
      {"sequence": "GATACGTCATGGACCGGTTTTCCCGGTAATCCGTATTTGTT (site GCTACGTCTAA)", "recombinant UMI read abundance (log10)": 0.00442},
      {"sequence": "GATACGTCATGGACCGGTTTTCCCGGTAATCCGTATTTGTT (site GGTACGTCTAA)", "recombinant UMI read abundance (log10)": 0.0473},
      {"sequence": "GATACGTCATGGACCGGTTTTCCCGGTAATCCGTATTTGTT (site GTTACGTCTAA)", "recombinant UMI read abundance (log10)": 0.0167},
      {"sequence": "GATAGATCATGGACCGGTTTTCCCGGTAATCCGTATTTGAG (site GATAGATCTCT)", "recombinant UMI read abundance (log10)": 1.83},
      {"sequence": "GATCATCCATGGACCGGTTTTCCCGGTAATCCGTATTTGCT (site GATAATCCTAG)", "recombinant UMI read abundance (log10)": 0}
    ]}
  ]
}
